Key:
Type in all cases: cell-based
[1] = tested on: endothelin receptor mRNA expression; experiment: PCR of endothelin receptor mRNA expression in vascular smooth muscle cells; settings: 100 μg/ml, 48 hrs, PCR 25 or 30 reaction cycles
Description: Extraction of cellular RNA: Subculturing smooth muscle cells to 100-mm culture dishes. After the cells had filled the culture dishes, Sal-B and its analogs were added to treat the cells for 48 hrs. After that, 1×PBS solutions were added to wash the cells three times. After adding 1 ml TRIzol, the cells were scraped off and placed in 1.5 ml micro-centrifuge tubes. Following the addition of 0.2 ml chloroform to each tube, the tubes were shaken, left at room temperature for 3 min., and run in a centrifuge at 12,000 rpm for 15 min. The supernatant liquid was removed and the cells placed in new micro-centrifuge tubes. After adding an amount of isopropyl alcohol equivalent to one-half of the volume of the supernatant liquid, and mixing until homogeneous, the samples were allowed to stand at room temperature for 10 min. The supernatant liquid was removed after centrifugation at 12,000 rpm for 10 min. 1 ml 70% alcohol was added to wash out salts, followed by centrifugation for 5 min. and removal of supernatant liquid. The samples were dissolved in 50 μl DEPC-H2O after drying.
(1) cDNA synthesis: 1 μl Random hexamer primer (20 μM) and 1 μl dNTP(10 mm) were added to 3 μg RNA, which was allowed to react at 65° C. for 5 min., and then placed on ice promptly. […]

[2] = tested on: PC-3 cancer cells; experiment: Flow cytometry cell cycle analysis (sub-G1, apoptosis) of PC-3 cells; settings: PC-3, 0.4 mM, 48 hrs, PI flow cytometry; control around 1.18%
Description: After suspending cells, the precooled 70% ethanol was used for fixing the cells. After centrifuging the mixture for 10 min. at 3,000 rpm, supernatant liquid was removed. Propidium iodide (PI) buffer (0.1% Triton X-100, 0.2 μg/ml RNase A, 40 μg/ml PI) was added, and then the solution was kept still at 37° C. for 30 min. After that, the cell cycle analysis was conducted by flow cytometry.
Flow cytometry was used to determine whether Sal-B and its analogs induced apoptosis in cancer cells. After treating PC-3 cancer cells with 0.4 mM Sal-B and EBA, and 0.01 mM compounds B and A for 48 hrs, the cells were collected and allowed to react with PI buffer for 30 min. Flow cytometry was then employed to measure the cell cycle. Approximately 5.16% of PC-3 cancer cells were at sub-G1 phase after treating with Sal-B, roughly 5.27% were at sub-G1 phase after treating with compound B, and roughly 8.54% were at sub-G1 phase after treating with compound A. However, for the control, only around 1.18% of the cells were at sub-G1 phase. Therefore, Sal-B and its analogs (compounds B and A) thus caused a significant increase in the percentage of cells at sub-G1 phase.

[3] = tested on: breast cancer cells (MCF-7); experiment: MTT cell viability, breast cancer cells; settings: MCF-7, different concentrations (0-0.5 mM), 48 hrs
Description: (§1) The cells (1×10^5 cells/well in 24-well plates) were cultured for 24 hrs. Different concentrations of Sal-B and its analogs (0, 50, 100, 150, 200, 250 μg/ml) were added to treat the cells. After treating for 48 hrs, 100 μl MTT solution was added to each well, and the plate was placed in an incubator for 1-4 hrs. After adding 400 μl DMSO to treat the cells for 30 min., 200 μl samples were collected and placed in a 96-well plate to conduct the absorption measurement at 550 nm.
(§2) Cancer cells were treated with Sal-B and EBA at concentrations of 0, 0.1, 0.2, 0.3, 0.4, 0.5 mM. After treating for 48 hrs, MTT was added, and then allowed to react for 3 hrs at 37° C. After that, DMSO was added and allowed to react for 30 min., the OD570 absorption values were measured. Cell viability was above 80% when nasopharyngeal cancer cells (Hone-1) were treated with […] Sal-B and EBA. […] But the cell viability remained above 70% for treating with 0.1 mM and 0.2 mM EBA. Similar results were obtained when prostate cancer cells (PC-3) were treated with the drugs: Cell viability was above 80% for treating PC-3 cells with 0.2 mM Sal-B or EBA.

[4] = tested on: ETAR gene expression in PC-3 cells; experiment: PCR of ETAR gene expression in PC-3 cancer cells; settings: 48 hrs
Description: PC-3 and MCF-7 cancer cells were treated with Sal-B and EBA for 48 hrs, and the identical concentrations of cellular whole RNA were sampled for the synthesis of cDNA by using reverse transcriptase. The PCR method was then used to compare the amounts of endothelin receptor mRNA expression. While the PC-3 cells were treated with either Sal-B or EBA, its ETAR gene expression was not reduced.

[5] = tested on: prostate cancer cells (PC-3); experiment: MTT cell viability, prostate cancer cells; settings: for Cell viability at higher concentrations: PC-3, 0.3 mM (or higher), 48 hrs, MTT
Description: as §1, §2
MTT testing was employed to observe the viability of cancer cells after treating with Sal-B and the six synthetic analogs.

Compound	Endothelin receptor mRNA expression compared with control [1]	PC-3 cancer cells at sub-G1 phase [2]	Effect on cancer cell viability [3]	ETAR gene expression [4]	Cell viability at higher concentrations [5]	Viability of PC-3 cells as the concentration is increased ([5]; PC-3, MTT, increasing concentration, FIG. 1)
epiblechnic acid [EBA]	reduced as comparing with the control	approximately 1.73%	no significant effect on cancer cell viability	not reduced	did not significantly reduce the cell viability	–
O=C(/C=C/c1ccc(O)c2c1[C@H](C(=O)O[C@H](Cc1ccc(O)c(O)c1)C(=O)[O-])[C@@H](c1ccc(O)c(O)c1)O2)O[C@H](Cc1ccc(O)c(O)c1)C(=O)[O-].[Mg+2] [Sal-B, magnesium lithospermate B]	reduced as comparing with the control	Approximately 5.16%	no significant effect on cancer cell viability	not reduced	the cell viability was reduced	reduced as the concentration of Sal-B was increased
